# Results from article PMC3454376, “Salidroside Improves Behavioral and Histological Outcomes and Reduces Apoptosis via PI3K/Akt Signaling after Experimental Traumatic Brain Injury” (PLoS ONE, 2012).
# Assays:
# [1] = Metabolic characteristics: serum BUN, CRE, ALT; type: in vivo, mice; details: for BUN / CRE: mean ± SEM, n = 4–5 mice/group
# Experimental: Three sets of experiments were performed. The first set was to investigate the protective effects of salidroside. All animals were randomized into 1 of 3 groups (sham injury, CCI + vehicle, CCI + SALD 20). Surgery/injury, behavioral testing, and tissue analyses were performed by different individuals. Behavioral testing and tissue analyses were performed by individuals blinded to the treatment group. Salidroside (Cayman Chemical, Ann Arbor, MI, USA) dissolved in normal saline (0.25 mL) or a corresponding volume of vehicle (saline) was administered intraperitoneally 10 min following injury. Testing after injury was completed as follows: 1) behavioral testing at days 1, 4, 7, 14, 21, and 28 (n = 8–10 mice/group); 2) cresyl violet staining at day 28 (n = 9 mice/group); 3) histology, determination of brain water content, and western blot analysis at day 1 or 3 (n = 5–6 mice/group). To determine the optimal dose of salidroside, a pilot study was performed using 2 different doses (20 and 50 mg/kg) administered 10 min after injury, and neurological deficits and tissue damage were evaluated as the main outcomes. […] The second set of experiment was to assess the effect of the inhibition of PI3K/Akt with the specific PI3K inhibitor, LY294002 (Cell Signaling Technology, Danvers, MA, USA), on salidroside effects. Animals were randomized into 4 groups. Mice received either: 1) icv pretreatment of LY294002 followed by SALD 20 after CCI (S20Y group); or 2) icv pretreatment of saline (vehicle control) followed by SALD 20 after CCI (S20V group). 3) Mice were infused icv with saline and were subjected to sham injury. 4) Mice were infused icv with LY294002 and were subjected to sham injury. Testing after injury was completed as follows: 1) cresyl violet staining at day 28 (n = 6 mice/group); 2) western blot analysis at day 1 (n = 6 mice/group). The third set of experiment was performed to examine the neuroprotective time window afforded by salidroside. Mice received intraperitoneal SALD 20 or vehicle (saline) at 3 or 6 h following CCI and were sacrificed 1 day later for FJB staining and western blot analysis (n = 6 mice/group).
# Following terminal anesthesia, venous blood was collected via direct right atrial puncture. The obtained blood was centrifuged (3500 rpm for 5 min), and the serum was stored at −20°C until analysis. A chemistry analyzer (Synchron Clinical System LX20; Beckman Coulter, Fullerton, CA, USA) was used to measure serum BUN and CRE to assess renal function, and ALT to assess liver function.
# [2] = tested on: mice subjected to controlled cortical impact injury; test: Modified neurological severity score (mNSS) after CCI; type: in vivo
# Experimental: All animal procedures were approved by the Animal Research Committee at Cheng Hsin General Hospital (Animal permit number […] 101-08), and all procedures complied with the Guide for the Care and Use of Laboratory Animals published by the US National Institutes of Health (NIH Publication No. 85-23, revised 1996). Animals were housed under a 12-h light/dark cycle and at constant temperature (21-25°C) and humidity (45-50%). They were allowed free access to pellet chow and water. TBI in mice was induced by a CCI injury model as previously described. Briefly, 8-week-old male C57BL/6 mice (weighing 22-25 g) were anesthetized through the use of intraperitoneal injection of sodium pentobarbital (65 mg/kg; Rhone Merieux, Harlow, UK) and placed in a stereotaxic frame. A 5 mm craniotomy was performed over the right parietal cortex, centered on the coronal suture and 0.1 mm lateral to the sagittal suture, and injury to dura was avoided. […] Body temperature was monitored throughout the surgery by a rectal probe; temperature was maintained at 37.0±0.5°C using a heated pad. […] To determine the optimal dose of salidroside, a pilot study was performed using 2 different doses (20 and 50 mg/kg) administered 10 min after injury, and neurological deficits and tissue damage were evaluated as the main outcomes. […]
compound,measurement,setting,value
"OC[C@H]1O[C@@H](OCCc2ccc(O)cc2)[C@H](O)[C@@H](O)[C@@H]1O [SALD, salidroside]","plasma concentrations of BUN, CRE, ALT (effect of treatment)",[1]; 20 mg/kg,did not alter
same,BUN,[1]; SALD 20 mg/kg,23.2 ± 2.49 mg/dL
same,CRE,[1]; SALD 20 mg/kg,0.17 ± 0.01 mg/dL
same,BUN,[1]; SALD 50 mg/kg,28.06 ± 4.5 mg/dL
same,CRE,[1]; SALD 50 mg/kg,0.16 ± 0.04 mg/dL
same,mNSS scores versus vehicle group,"[2]; 20 mg/kg ip 10 min after CCI, days 4, 14, 21, 28, all P<0.05",significant lower
same,mNSS scores versus vehicle group,"[2]; 50 mg/kg ip 10 min after CCI, days 14, 21, 28, P<0.05",significantly lower
